# Results taken from patent US9546164B2 (GENENTECH, INC., priority 2013, dated 2017).
# Counter-ions that a name gives are not always drawn. Like-named read-outs stand apart in the source and are kept apart here.
# Molecular target: hNav1.7 (Homo sapiens (Human), UniProt Q15858)
# Assay: Tritiated sulfonamide competitive binding to membranes from cells expressing hNav1.7 and the β1 subunit;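 also: Filter-bound radioactivity counted by liquid scintillation, nonspecific binding defined with excess unlabelled ligand, IC50 fitted to percent inhibition of specific binding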
# [1] = read-out: Ligand Binding Assay, 100 pM [3H]compound, membranes with hNav1.7 and β1 subunit, 18 h, room temperature
# hNav1.7, sequence (Q15858 other isoform, or with tags, fused parts or gaps): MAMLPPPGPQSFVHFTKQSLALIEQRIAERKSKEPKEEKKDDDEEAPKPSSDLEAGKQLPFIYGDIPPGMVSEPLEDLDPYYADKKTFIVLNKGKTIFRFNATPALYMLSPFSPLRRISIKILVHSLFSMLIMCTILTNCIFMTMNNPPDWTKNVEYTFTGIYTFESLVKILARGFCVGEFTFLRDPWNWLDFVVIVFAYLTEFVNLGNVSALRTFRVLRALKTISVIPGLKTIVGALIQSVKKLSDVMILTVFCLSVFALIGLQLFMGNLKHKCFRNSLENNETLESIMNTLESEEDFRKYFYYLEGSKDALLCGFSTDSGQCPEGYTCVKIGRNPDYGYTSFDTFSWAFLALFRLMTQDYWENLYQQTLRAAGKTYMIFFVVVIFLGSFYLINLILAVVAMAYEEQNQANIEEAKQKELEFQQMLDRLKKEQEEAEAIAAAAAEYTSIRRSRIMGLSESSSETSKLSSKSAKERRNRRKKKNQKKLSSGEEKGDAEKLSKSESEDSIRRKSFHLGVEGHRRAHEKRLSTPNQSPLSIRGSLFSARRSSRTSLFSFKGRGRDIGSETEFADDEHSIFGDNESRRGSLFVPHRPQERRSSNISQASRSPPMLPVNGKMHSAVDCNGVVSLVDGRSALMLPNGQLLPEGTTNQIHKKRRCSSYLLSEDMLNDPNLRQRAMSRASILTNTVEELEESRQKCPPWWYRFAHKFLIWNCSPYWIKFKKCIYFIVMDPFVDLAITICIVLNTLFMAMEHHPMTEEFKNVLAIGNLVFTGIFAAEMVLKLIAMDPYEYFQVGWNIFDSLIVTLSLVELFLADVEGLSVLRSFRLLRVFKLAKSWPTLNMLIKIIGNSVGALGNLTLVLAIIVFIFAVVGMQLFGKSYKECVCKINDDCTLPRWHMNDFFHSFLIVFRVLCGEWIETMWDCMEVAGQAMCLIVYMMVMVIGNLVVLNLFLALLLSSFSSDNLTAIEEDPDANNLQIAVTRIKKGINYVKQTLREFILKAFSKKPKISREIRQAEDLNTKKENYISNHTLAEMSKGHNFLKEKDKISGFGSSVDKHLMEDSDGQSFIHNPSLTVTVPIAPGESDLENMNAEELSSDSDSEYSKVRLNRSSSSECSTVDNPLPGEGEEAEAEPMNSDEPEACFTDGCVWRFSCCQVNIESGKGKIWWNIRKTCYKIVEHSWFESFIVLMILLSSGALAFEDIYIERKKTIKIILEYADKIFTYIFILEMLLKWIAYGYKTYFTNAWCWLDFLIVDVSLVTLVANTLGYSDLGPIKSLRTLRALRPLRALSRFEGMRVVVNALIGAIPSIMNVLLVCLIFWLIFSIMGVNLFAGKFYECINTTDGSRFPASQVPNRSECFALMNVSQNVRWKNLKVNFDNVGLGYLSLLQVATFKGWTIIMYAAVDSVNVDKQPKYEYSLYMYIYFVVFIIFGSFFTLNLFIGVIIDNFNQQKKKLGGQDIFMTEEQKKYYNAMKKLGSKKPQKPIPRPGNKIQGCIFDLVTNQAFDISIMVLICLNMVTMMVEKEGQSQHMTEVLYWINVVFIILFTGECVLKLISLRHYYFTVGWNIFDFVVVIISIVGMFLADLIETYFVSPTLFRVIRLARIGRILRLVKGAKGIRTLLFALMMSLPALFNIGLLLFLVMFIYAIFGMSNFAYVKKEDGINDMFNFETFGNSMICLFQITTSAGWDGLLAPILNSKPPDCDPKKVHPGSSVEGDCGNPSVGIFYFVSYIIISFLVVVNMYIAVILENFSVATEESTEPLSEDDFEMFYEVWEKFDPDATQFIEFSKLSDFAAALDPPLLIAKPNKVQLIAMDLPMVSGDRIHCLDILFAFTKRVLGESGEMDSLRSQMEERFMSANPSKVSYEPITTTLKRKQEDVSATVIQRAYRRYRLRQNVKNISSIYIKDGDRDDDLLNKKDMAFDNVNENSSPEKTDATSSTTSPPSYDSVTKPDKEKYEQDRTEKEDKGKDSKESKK
# hNav1.7, sequence (Q07699 19-218 partner): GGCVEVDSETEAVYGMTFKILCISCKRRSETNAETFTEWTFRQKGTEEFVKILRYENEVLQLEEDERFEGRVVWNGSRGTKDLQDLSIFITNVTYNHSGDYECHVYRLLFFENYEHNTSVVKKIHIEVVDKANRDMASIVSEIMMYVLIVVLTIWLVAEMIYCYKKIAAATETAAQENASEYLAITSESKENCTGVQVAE
Compound,IC50 [1] [nM],IC50 [nM]
"COC[C@@H](c1cccc(Cl)c1)N1CCC(COc2cc(F)c(C(=O)NS(C)(=O)=O)cc2C2CC2)CC1 [Example 262, (R)-4-((1-(1-(3-chlorophenyl)-2-methoxyethyl)piperidin-4-yl)methoxy)-5-cyclopropyl-2-fluoro-N-(methylsulfonyl)benzamide]",18,–
CS(=O)(=O)NC(=O)c1cc(C2CC2)c(OCC2CCN([C@@H](CO)c3cc(Cl)cc(Cl)c3)CC2)cc1F [Example 266],91,–
"CS(=O)(=O)NC(=O)c1cc(C2CC2)c(OCC2CCN([C@H](CO)c3cc(Cl)cc(Cl)c3)CC2)cc1F [Example 267, (S)-5-cyclopropyl-4-((1-(1-(3,5-dichlorophenyl)-2-hydroxyethyl)piperidin-4-yl)methoxy)-2-fluoro-N-(methylsulfonyl)benzamide]",47,–
"C[C@H](c1cc(Cl)cc(Cl)c1)N1CCC(COc2cc(F)c(C(=O)NS(=O)(=O)C3CC3)cc2C2CC2)CC1 [Example 269, (R)-5-cyclopropyl-N-(cyclopropylsulfonyl)-4-((1-(1-(3,5-dichlorophenyl)ethyl)piperidin-4-yl)methoxy)-2-fluorobenzamide]",–,3.4
"CS(=O)(=O)NC(=O)c1cc(C2CC2)c(OCC2CCN(S(=O)(=O)c3cc(Cl)cc(Cl)c3)CC2)cc1F [Example 273, 5-Cyclopropyl-4-((1-((3,5-dichlorophenyl)sulfonyl)piperidin-4-yl)methoxy)-2-fluoro-N-(methylsulfonyl)benzamide]",8.5,–
"CS(=O)(=O)NC(=O)c1cc(C2CC2)c(OCC2CN(S(=O)(=O)c3cc(Cl)cc(Cl)c3)C2)cc1F [Example 274, 5-Cyclopropyl-4-((1-((3,5-dichlorophenyl)sulfonyl)azetidin-3-yl)methoxy)-2-fluoro-N-(methylsulfonyl)benzamide]",68,–
"O=C(NS(=O)(=O)C1CC1)c1cc(C2CC2)c(OCC2CCN(S(=O)(=O)c3cc(Cl)cc(Cl)c3)CC2)cc1F [Example 275, 5-Cyclopropyl-N-(cyclopropylsulfonyl)-4-((1-((3,5-dichlorophenyl)sulfonyl)piperidin-4-yl)methoxy)-2-fluorobenzamide]",6.9,–
"C[C@@H](c1ccc(Cl)cc1Cl)N1CCC(C)(COc2cc(F)c(C(=O)NS(C)(=O)=O)cc2C2CC2)CC1 [Example 280, (S)-5-cyclopropyl-4-((1-(1-(2,4-dichlorophenyl)ethyl)-4-methylpiperidin-4-yl)methoxy)-2-fluoro-N-(methylsulfonyl)benzamide]",8.1,–
"C[C@H](c1ccc(Cl)cc1Cl)N1CCC(C)(COc2cc(F)c(C(=O)NS(C)(=O)=O)cc2C2CC2)CC1 [Example 281, (R)-5-cyclopropyl-4-((1-(1-(2,4-dichlorophenyl)ethyl)-4-methylpiperidin-4-yl)methoxy)-2-fluoro-N-(methylsulfonyl)benzamide]",4.7,–
"COC[C@H](c1ccc(Cl)cc1Cl)N1CCC(COc2cc(F)c(C(=O)NS(C)(=O)=O)cc2C2CC2)CC1 [Example 282, (S)-5-cyclopropyl-4-((1-(1-(2,4-dichlorophenyl)-2-methoxyethyl)piperidin-4-yl)methoxy)-2-fluoro-N-(methylsulfonyl)benzamide]",4.4,–
"COC[C@@H](c1ccc(Cl)cc1Cl)N1CCC(COc2cc(F)c(C(=O)NS(C)(=O)=O)cc2C2CC2)CC1 [Example 283, (R)-5-cyclopropyl-4-((1-(1-(2,4-dichlorophenyl)-2-methoxyethyl)piperidin-4-yl)methoxy)-2-fluoro-N-(methylsulfonyl)benzamide]",4,–
"CCS(=O)(=O)NC(=O)c1cc(C2CC2)c(OCC2CCN([C@H](C)c3ccc(Cl)cc3Cl)CC2)cc1F [Example 284, (R)-5-cyclopropyl-4-((1-(1-(2,4-dichlorophenyl)ethyl)piperidin-4-yl)methoxy)-N-(ethylsulfonyl)-2-fluorobenzamide]",3.6,–
"CCS(=O)(=O)NC(=O)c1cc(C2CC2)c(OCC2CCN([C@@H](C)c3ccc(Cl)cc3Cl)CC2)cc1F [Example 285, (S)-5-cyclopropyl-4-((1-(1-(2,4-dichlorophenyl)ethyl)piperidin-4-yl)methoxy)-N-(ethylsulfonyl)-2-fluorobenzamide]",3.3,–
"CCS(=O)(=O)NC(=O)c1cc(C2CC2)c(OCC2CCN([C@H](COC)c3ccc(Cl)cc3Cl)CC2)cc1F [Example 286, (S)-5-cyclopropyl-4-((1-(1-(2,4-dichlorophenyl)-2-methoxyethyl)piperidin-4-yl)methoxy)-N-(ethylsulfonyl)-2-fluorobenzamide]",5.4,–
"CCS(=O)(=O)NC(=O)c1cc(C2CC2)c(OCC2CCN([C@@H](COC)c3ccc(Cl)cc3Cl)CC2)cc1F [Example 287, (R)-5-cyclopropyl-4-((1-(1-(2,4-dichlorophenyl)-2-methoxyethyl)piperidin-4-yl)methoxy)-N-(ethylsulfonyl)-2-fluorobenzamide]",3.5,–
"O=C(NS(=O)(=O)N1CCC1)c1cc(C2CC2)c(OCC2CCN(c3ccccc3)CC2)cc1F [Example 291, N-(azetidin-1-ylsulfonyl)-5-cyclopropyl-2-fluoro-4-((1-phenylpiperidin-4-yl)methoxy)benzamide]",11,–

Compound,IC50 [1] [nM],IC50 [nM]
"CS(=O)(=O)NC(=O)c1cc(C2CC2)c(OCC2CCN(c3cc(Cl)cc(Cl)c3)CC2)cc1F [Example 292, 5-Cyclopropyl-4-((1-(3,5-dichlorophenyl)piperidin-4-yl)methoxy)-2-fluoro-N-(methylsulfonyl)benzamide]",2.9,–
"CS(=O)(=O)NC(=O)c1cc(C2CC2)c(OCC2CCN(c3ccccc3Cl)CC2)cc1F [Example 293, 4-((1-(2-Chlorophenyl)piperidin-4-yl)methoxy)-5-cyclopropyl-2-fluoro-N-(methylsulfonyl)benzamide]",5.2,–
"CS(=O)(=O)NC(=O)c1cc(C2CC2)c(OCC2CCN(c3cccc(Cl)c3)CC2)cc1F [Example 294, 4-((1-(3-Chlorophenyl)piperidin-4-yl)methoxy)-5-cyclopropyl-2-fluoro-N-(methylsulfonyl)benzamide]",3.8,–
"C[C@@H](c1ccc(F)cc1Cl)N1CCC[C@@H](Oc2cc(F)c(C(=O)NS(C)(=O)=O)cc2C2CC2)C1 [Example 295, 4-(((R)-1-((S)-1-(2-chloro-4-fluorophenyl)ethyl)piperidin-3-yl)oxy)-5-cyclopropyl-2-fluoro-N-(methylsulfonyl)benzamide]",2.3,–
"C[C@H](c1ccc(F)cc1Cl)N1CCC[C@@H](Oc2cc(F)c(C(=O)NS(C)(=O)=O)cc2C2CC2)C1 [Example 296, 4-(((R)-1-((R)-1-(2-chloro-4-fluorophenyl)ethyl)piperidin-3-yl)oxy)-5-cyclopropyl-2-fluoro-N-(methylsulfonyl)benzamide]",8.1,–
"CS(=O)(=O)NC(=O)c1cc(C2CC2)c(OCC2CCN(C(c3cc(Cl)cc(Cl)c3)C(F)(F)F)CC2)cc1F (stereo not shown) [Example 299, 5-cyclopropyl-4-((1-(1-(3,5-dichlorophenyl)-2,2,2-trifluoroethyl)piperidin-4-yl)methoxy)-2-fluoro-N-(methylsulfonyl)benzamide]",1.9,–
"CS(=O)(=O)NC(=O)c1cc(C2CC2)c(OCC2CCN(C(c3ccc(F)cc3Cl)C(F)(F)F)CC2)cc1F (stereo not shown) [Example 300, 4-((1-(1-(2-chloro-4-fluorophenyl)-2,2,2-trifluoroethyl)piperidin-4-yl)methoxy)-5-cyclopropyl-2-fluoro-N-(methylsulfonyl)benzamide]",1.6,–
"CS(=O)(=O)NC(=O)c1cc(C2CC2)c(OCC2CCN(C(c3ccc(F)c(Cl)c3)C(F)(F)F)CC2)cc1F (stereo not shown) [Example 301, 4-((1-(1-(3-chloro-4-fluorophenyl)-2,2,2-trifluoroethyl)piperidin-4-yl)methoxy)-5-cyclopropyl-2-fluoro-N-(methylsulfonyl)benzamide]",3,–
"CS(=O)(=O)NC(=O)c1cc(C2CC2)c(OCCC2CCN(Cc3cc(Cl)cc(Cl)c3)CC2)cc1F [Example 302, 5-cyclopropyl-4-(2-(1-(3,5-dichlorobenzyl)piperidin-4-yl)ethoxy)-2-fluoro-N-(methylsulfonyl)benzamide, trifluoroacetic acid salt]",5.7,–
"CCS(=O)(=O)NC(=O)c1cc(C2CC2)c(OCCC2CCN(Cc3cc(Cl)cc(Cl)c3)CC2)cc1F [Example 303, 5-cyclopropyl-4-(2-(1-(3,5-dichlorobenzyl)piperidin-4-yl)ethoxy)-N-(ethylsulfonyl)-2-fluorobenzamide, trifluoroacetic acid salt]",6.5,–
"O=C(NS(=O)(=O)C1CC1)c1cc(C2CC2)c(OCCC2CCN(Cc3cc(Cl)cc(Cl)c3)CC2)cc1F [Example 304, 5-cyclopropyl-N-(cyclopropylsulfonyl)-4-(2-(1-(3,5-dichlorobenzyl)piperidin-4-yl)ethoxy)-2-fluorobenzamide, trifluoroacetic acid salt]",3.7,–
"CS(=O)(=O)NC(=O)c1cc(C2CC2)c(O[C@@H]2CCCN(Cc3cc(C(F)(F)F)cc(C4CC4)n3)C2)cc1F [Example 305, (R)-5-cyclopropyl-4-((1-((6-cyclopropyl-4-(trifluoromethyl)pyridin-2-yl)methyl)piperidin-3-yl)oxy)-2-fluoro-N-(methylsulfonyl)benzamide]",3.9,–
"CS(=O)(=O)NC(=O)c1cc(C2CC2)c(OCC2CCN(Cc3cc(C(F)(F)F)cc(C4CC4)n3)CC2)cc1F [Example 306, 5-cyclopropyl-4-((1-((6-cyclopropyl-4-(trifluoromethyl)pyridin-2-yl)methyl)piperidin-4-yl)methoxy)-2-fluoro-N-(methylsulfonyl)benzamide]",6,–
"CCS(=O)(=O)NC(=O)c1cc(C2CC2)c(OCC2CCN(Cc3cc(C(F)(F)F)cc(C4CC4)n3)CC2)cc1F [Example 307, 5-cyclopropyl-4-((1-((6-cyclopropyl-4-(trifluoromethyl)pyridin-2-yl)methyl)piperidin-4-yl)methoxy)-N-(ethylsulfonyl)-2-fluorobenzamide]",6.7,–
O=C(NS(=O)(=O)C1CC1)c1cc(C2CC2)c(OCC2CCN(Cc3cc(C(F)(F)F)cc(C4CC4)n3)CC2)cc1F [Example 308],6,–
